Earlier results as cited in patent US20030190375A1, “Therapeutical use of sophora flavescens or sophora subprostrata extracts” (priority 2000, published 2003).

Assays:
[1] = Huang, The Pharmacology of Chinese Herbs, 1993
Ishikawa-Var-I cells = settings: Milligan et al 1999

Row | Compound | toxic effects in animal studies [1] | oestrogenic potency in vitro (stimulation of alkaline phosphatase) (Ishikawa-Var-I cells)
1 | O=C1CCC[C@@H]2[C@H]3CCC[N+]4([O-])CCC[C@@H](CN12)[C@@H]34 (some centres unmarked) [oxymatrine] | toxic effects could be shown | 
2 | CC(C)=CCc1c(O)cc(O)c2c1O[C@H](c1ccc(O)cc1)CC2=O [8-prenylnaringenine] |  | significantly more active than the long-familiar phyto-oestrogens such as cumesterol, genistone or daidzin, and produced only a slightly weaker effect than 17β oestradiol
